Laboratory results: patent publication US8895585B2, “Nicotinamide derivative or salt thereof” (FUJIFILM Corporation, priority 2010, dated 2014)

What was measured:
[1] = tested on: female BALB/c mice; assay: Mouse type-II-collagen-antibody-induced arthritis; type: in vivo; conditions: intraperitoneal 30 mg/kg/day, twice daily, Day 0 to Day 13
Method: The compound synthesized in Example 8-1 was tested to examine effects upon mouse-type-II-collagen-antibody-induced arthritis. An anti-type II collagen antibody mixture (Chondrex) was intraperitoneally injected into 7-week-old female BALB/c mice (Charles River Laboratories Japan, Inc.) (1.5 mg per mouse) (Day 0). An LPS solution 0111:B4 (Chondrex) (50 μg) was intraperitoneally injected thereinto three days later (Day 3), thereby inducing arthritis. Swelling scores were determined for four limbs of each mouse once daily from Day 3 to Day 14. Specifically, evaluation was carried out using a twelve-point scale for the sum of the scores for the four limbs for each mouse: 0 point: no change; 1 point: mild erythema/swelling on the carpal region or the ankle/calcaneal region; 2 points: obvious swelling on the carpal region or the ankle/calcaneal region; 3 points: severe swelling over forelimbs or hindlimbs. The compound synthesized in Example 8-1 was intraperitoneally administered at 30 mg/kg/day twice daily on consecutive days (from Day 0 to Day 13). The bone destruction score was determined based on soft X-ray images of four limbs taken on Day 14. […]

[2] = tested on: male DBA/1J mice; assay: Mouse type-II collagen-induced arthritis (prophylactic and therapeutic administration test); type: in vivo; conditions: prophylactic administration test, once daily Day 21 to Day 34, 1 to 30 mg/kg/day
Method: The compounds synthesized in Example 8-1, Example 4-17, and Example 6-49 were tested to examine effects upon mouse type II collagen arthritis. To 2 mg/mL bovine type II collagen solution (Koken Co., Ltd.) dissolved in 0.1 mol/L acetic acid, an equal amount of Freund's complete adjuvant (Wako Pure Chemical Industries, Ltd.) was added to prepare an emulsion. A portion of the emulsion was intradermally injected into the tail bases of 7- or 8-week-old male DBA/1J mice (Charles River Laboratories Japan, Inc.) at a dose of 0.2 mL per mouse (antigen amount: 0.2 mg/mouse) on Day 0 and Day 21 twice, so as to induce arthritis. Each compound was administered once daily from Day 21 to Day 34 in the prophylactic administration test (1 to 30 mg/kg/day), and administered once daily from Day 27 to Day 35 in the therapeutic administration test (25 mg/kg/day). Arthritis scores for four limbs for each mouse were determined starting from Day 21. Specifically, the total score of four limbs of a mouse was designated as the individual arthritis score (12 points at a maximum per mouse) based on the following: score 0: no change; score 1: swelling of 1 or 2 digit joints or mild swelling of the carpal region/the ankle region alone; score 2: swelling of joints of at least 3 digits or obvious swelling of the carpal region/the ankle region; and score 3: obvious swelling over forelimbs or hindlimbs.

[3] = target: T1, glutathione S-transferase (GST)-fused full-length human Syk protein (Homo sapiens, UniProt P43405); assay: Syk enzyme assay; type: biochemical; conditions: read-out: Syk-inhibitory activity (IC50)
T1 construct: (GST)-fused full-length human Syk protein; GST (glutathione S-transferase); purchased Carna Biosciences
Summary of the method: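 IC50 values come from a time-resolved FRET readout (615 and 665 nm) of substrate phosphorylation, measured after an EDTA stop and 1 h antibody binding. The kinase reaction ran 40 min at room temperature with 27 μM ATP and 0.4 μM biotin-peptide, following a 15 min compound preincubation with baculovirus-made GST-full-length human Syk.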

Q: With `COc1cc(Nc2nc(NCCN)c(F)cc2C(N)=O)cc(OC)c1` [Example 8-1, 6-(2-aminoethylamino)-2-(3,5-dimethoxyphenylamino)-5-fluoronicotinamide] as the compound, how does the “increase in the swelling score” value ([1]; scored Day 3 to Day 14) read?
A: almost completely inhibited

Q: What about the “increase in the bone destruction score” value ([1]; soft X-ray images on Day 14) of the same compound?
A: almost completely inhibited

Q: And the “advancement of arthritis after the onset (arthritis score)” value [2]?
A: strongly inhibited

Q: And the IC50 [3]?
A: ≤ 1000 nM
